In experiment [1] the test system is Candida parapsilosis. The experiment in a line: Antimicrobial activity against Candida parapsilosis ATCC 22019 after 24 hrs by spectrophotometric method. It counts as functional, organism-based.
The test system of experiment [2] is SW-620. The experiment in a line: Cytotoxicity against human SW620 cells assessed as inhibition of cell growth after 48 hrs by MTT assay. It counts as cell-based. The following applies: SW-620, 48 h. Background: Tetrazolium assays rely on reduction of a dye to a coloured formazan, in cell work by metabolically active cells.
Experiment [3] deals with Pichia kudriavzevii. The experiment in a line: Antimicrobial activity against Candida krusei ATCC 6258 after 24 hrs by spectrophotometric method. It counts as functional, organism-based.
Experiment [4] relates to Escherichia coli. The experiment in a line: Antimicrobial activity against Escherichia coli ATCC 11775 after 24 hrs by spectrophotometric method. Conditions: DSM 30083 = JCM 1649 = ATCC 11775. The experiment is classed as functional, organism-based.
Experiment [5] relates to Staphylococcus aureus. The experiment in a line: Antimicrobial activity against Staphylococcus aureus ATCC 25923 after 24 hrs by spectrophotometric method. The experiment is classed as functional, organism-based.
The subject of experiment [6] is NCI-H460. The experiment in a line: Cytotoxicity against human NCI-H460 cells assessed as inhibition of cell growth after 48 hrs by MTT assay. The following applies: NCI-H460, 48 h. The experiment is classed as cell-based.
Experiment [7] concerns Candida albicans. The experiment in a line: Antimicrobial activity against Candida albicans ATCC 10231 after 24 hrs by spectrophotometric method. The experiment is classed as functional, organism-based.
Experiment [8] deals with Bacillus subtilis. The experiment in a line: Antimicrobial activity against Bacillus subtilis ATCC 6051 after 24 hrs by spectrophotometric method. The experiment is classed as functional, organism-based.
In experiment [9] the test system is Pseudomonas aeruginosa. The experiment in a line: Antimicrobial activity against Pseudomonas aeruginosa ATCC 10145 after 24 hrs by spectrophotometric method. The experiment is classed as functional, organism-based.

Molecules are shown by their SMILES. Activity calls are given as the source filed them. The rule behind the calls is not given here. Some results are limits rather than exact numbers.

As usually defined, the IC50 is the concentration that gives 50% inhibition.

As to `CC[C@@H](C)[C@H](NC(=O)[C@H](CCC(N)=O)NC(=O)C(C)(C)NC(C)=O)C(=O)N[C@H](C(=O)NC(C)(C)C(=O)N1CCC[C@H]1C(=O)N[C@H](C(=O)N[C@@H](CC(C)C)C(=O)NC(C)(C)C(=O)N1CCC[C@H]1C(=O)N[C@H](CO)CC(C)C)[C@@H](C)CC)C(C)C`, the result in [1], in [3], in experiment [4], in [5], in [7] and in experiment [8] was inactive. Further, the result in [9] was inactive. Moreover, the IC50 in experiment [2] and in [6] was greater than 30 µM each time.
Regarding `CC[C@@H](C)[C@H](NC(=O)[C@H](CCC(N)=O)NC(=O)C(C)(C)NC(C)=O)C(=O)N[C@H](C(=O)NC(C)(C)C(=O)N1CCC[C@H]1C(=O)N[C@H](C(=O)N[C@@H](CC(C)C)C(=O)NC(C)(C)C(=O)N1CCC[C@H]1C(=O)N[C@H](CO)C(C)C)[C@@H](C)CC)C(C)C`, the result in experiment [1], in [3], in experiment [4], in experiment [5], in experiment [7] and in experiment [8] was inactive. The outcome in experiment [9] was inactive. Moreover, the half-maximal inhibitory concentration (IC50) in experiment [2] and in [6] was greater than 30 µM in each case.
For the compound `CC[C@@H](C)[C@H](NC(=O)[C@H](CCC(N)=O)NC(=O)[C@@](C)(CC)NC(C)=O)C(=O)N[C@H](C(=O)NC(C)(C)C(=O)N1CCC[C@H]1C(=O)N[C@H](C(=O)N[C@@H](CC(C)C)C(=O)NC(C)(C)C(=O)N1CCC[C@H]1C(=O)N[C@H](CO)C(C)C)[C@@H](C)CC)C(C)C`, the result in experiment [1], in experiment [3], in experiment [4], in experiment [5], in [7] and in experiment [8] was inactive. The outcome in [9] was inactive. The IC50 in [2] came out at 18.9 µM; in experiment [6] it was 19.3 µM.
Turning to `CC[C@@H](C)[C@H](NC(=O)[C@H](CCC(N)=O)NC(=O)[C@@](C)(CC)NC(C)=O)C(=O)N[C@H](C(=O)NC(C)(C)C(=O)N1CCC[C@H]1C(=O)N[C@H](C(=O)N[C@@H](CC(C)C)C(=O)NC(C)(C)C(=O)N1CCC[C@H]1C(=O)N[C@H](CO)CC(C)C)[C@@H](C)CC)C(C)C`, the result in experiment [1], in experiment [3], in experiment [4], in experiment [5], in [7] and in [8] was inactive. In addition, the outcome in experiment [9] was inactive. Further, the IC50 in experiment [2] was 12.8 µM; in experiment [6], 10.9 µM.
As for `CC[C@H](C)[C@H](NC(=O)[C@@H]1CCCN1C(=O)C(C)(C)NC(=O)[C@@H](NC(=O)[C@@H](NC(=O)[C@H](CCC(N)=O)NC(=O)[C@@](C)(CC)NC(C)=O)C(C)C)C(C)C)C(=O)N[C@@H](CC(C)C)C(=O)NC(C)(C)C(=O)N1CCC[C@H]1C(=O)N[C@H](CO)C(C)C`, the result in experiment [1], in experiment [3], in [4], in experiment [5], in experiment [7] and in experiment [8] was inactive. For the same compound, the result in experiment [9] was inactive. Further, the IC50 is 27.5 µM in experiment [2] and greater than 30 µM in [6].
